Measured values from PMC11876601 (Molecular Systems Biology, 2025).
Where “and” joins values, the source holds several entries; their conditions need not be identical. Identical values can stand only once. Like-named read-outs stand apart in the source and are kept apart here.

How the values were obtained:
PANC-1 cells = assay: Cell proliferation assay, GEM + ATR inhibitor (Incucyte confluence, 72 h); conditions: for EC50: Homo sapiens; for Curve bottom / Curve top: PANC-1, plateau of fitted curve, ratio drug/vehicle confluence;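 as to EC50: in combination experiments GEM is titrated while ATRi is held at a fixed sub-EC50 dose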;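 as to all read-outs here: PANC-1 confluence at 72 h taken as raw values, not normalized to starting confluence, with each experiment run in triplicate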
Method: (§2) Cells were seeded at 5000 cells/well into 96-well flat bottom plates (Eppendorf) and allowed to attach overnight. […] Cells were incubated for 72 h at 37 °C and 5% CO2. Cell confluence readouts at 72 h were either normalized to their initial confluence using the Incucyte software (AsPC-1) or used without prior normalization (all others). […] Each experiment was performed in triplicates, the data was plotted as mean ± standard deviation (s.d.).

MAP3K1 ; Q13233 = MAP3K1 ; Q13233 (Homo sapiens, UniProt Q13233); assay: biochemical; set-up: species or system AsPC-1; Kinobeads competition pulldown in AsPC-1 lysate with LC-MS/MS label-free quantification; apparent Kd
Method: (§1) This was followed by incubation with Kinobeads ε (17.5 µl of settled beads) for 30 min at 4 °C to enrich kinases. […] Enriched proteins were reduced with 50 mM DTT in 8 M urea, 40 mM Tris-HCl, pH 7.4 for 30 min at room temperature, and alkylated with 55 mM chloroacetamide. After reducing the urea concentration to 1–2 M, proteins were digested with trypsin at 37 °C for 16 h. Subsequently, eluted peptides were desalted using SepPak tC18 µElution plates (Waters), freeze-dried by vacuum centrifugation, and stored at −20 °C. Proteins were filtered by potential contaminants, reversed hits and proteins identified only by site. Residual binding of proteins was calculated from LFQ intensities as the ratio between drug doses and vehicle. […] Only kinases quantified with at least 4 unique peptides in the vehicle experiment were considered. Potential targets were further curated through manual inspection of dose-dependent reduction in MS/MS and unique peptide counts.

GSK3A ; P49840 = GSK3A ; P49840 (Homo sapiens, UniProt P49840); assay: biochemical; set-up: species or system AsPC-1; Kinobeads competition pulldown in AsPC-1 lysate with LC-MS/MS label-free quantification; apparent Kd
Method: as §1

Suit2-07 cells = assay: Cell proliferation assay, GEM + ATR inhibitor (Incucyte confluence, 72 h); assay type: cell-based, human; conditions: Suit2-07; for EC50: Homo sapiens, 72 h; for Response: R1; for Curve bottom / Curve top: plateau of fitted curve, ratio drug/vehicle confluence;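 as to all read-outs here: Suit2-07 cells grown in 96-well plates at 37 °C, 5% CO2, raw 72 h confluence taken without normalizing to starting confluence, each experiment done in triplicate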
Method: as §2

MiaPaCa-2 = assay: cells; set-up: ATPlite luminescence viability of PDAC cell lines, 11-dose single-agent curves, 4-parameter fit; conditions: Homo sapiens, MIA PaCa-2, 72 h, read-out: EC50 [nM]
How it was run: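 cells (1000 to 5000 per well) seeded 24 h before drug addition in a combination screen at 0.2% final DMSO. Controls were drug-free wells (negative) and 5 µM staurosporine (positive).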

AAK1 = conditions: cited from earlier work
MAP4K1 = conditions: cited from earlier work
[1] = experiment ATRi (ATR inhibitor alone)
[2] = AAK1, 5 cell line mix lysate, Kinobeads ε, ref Reinecke et al. (2023)
[3] = MAP4K1, 5 cell line mix lysate, Kinobeads ε, ref Reinecke et al. (2023)

Chain of GSK3A ; P49840 (P49840 whole entry): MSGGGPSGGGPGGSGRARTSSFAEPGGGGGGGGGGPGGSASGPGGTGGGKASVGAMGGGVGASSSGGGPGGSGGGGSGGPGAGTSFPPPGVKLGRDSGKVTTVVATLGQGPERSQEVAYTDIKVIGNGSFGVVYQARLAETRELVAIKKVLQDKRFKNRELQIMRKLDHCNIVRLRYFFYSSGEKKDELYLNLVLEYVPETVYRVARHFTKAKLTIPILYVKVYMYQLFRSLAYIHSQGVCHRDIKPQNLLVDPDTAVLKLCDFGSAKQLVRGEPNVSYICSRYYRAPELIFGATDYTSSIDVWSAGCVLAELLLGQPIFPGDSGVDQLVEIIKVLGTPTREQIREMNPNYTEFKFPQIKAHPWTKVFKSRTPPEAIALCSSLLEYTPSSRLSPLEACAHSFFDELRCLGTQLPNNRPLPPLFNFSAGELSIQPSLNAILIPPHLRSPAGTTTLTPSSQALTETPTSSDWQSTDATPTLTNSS
Chain of MAP3K1 ; Q13233 (Q13233 whole entry): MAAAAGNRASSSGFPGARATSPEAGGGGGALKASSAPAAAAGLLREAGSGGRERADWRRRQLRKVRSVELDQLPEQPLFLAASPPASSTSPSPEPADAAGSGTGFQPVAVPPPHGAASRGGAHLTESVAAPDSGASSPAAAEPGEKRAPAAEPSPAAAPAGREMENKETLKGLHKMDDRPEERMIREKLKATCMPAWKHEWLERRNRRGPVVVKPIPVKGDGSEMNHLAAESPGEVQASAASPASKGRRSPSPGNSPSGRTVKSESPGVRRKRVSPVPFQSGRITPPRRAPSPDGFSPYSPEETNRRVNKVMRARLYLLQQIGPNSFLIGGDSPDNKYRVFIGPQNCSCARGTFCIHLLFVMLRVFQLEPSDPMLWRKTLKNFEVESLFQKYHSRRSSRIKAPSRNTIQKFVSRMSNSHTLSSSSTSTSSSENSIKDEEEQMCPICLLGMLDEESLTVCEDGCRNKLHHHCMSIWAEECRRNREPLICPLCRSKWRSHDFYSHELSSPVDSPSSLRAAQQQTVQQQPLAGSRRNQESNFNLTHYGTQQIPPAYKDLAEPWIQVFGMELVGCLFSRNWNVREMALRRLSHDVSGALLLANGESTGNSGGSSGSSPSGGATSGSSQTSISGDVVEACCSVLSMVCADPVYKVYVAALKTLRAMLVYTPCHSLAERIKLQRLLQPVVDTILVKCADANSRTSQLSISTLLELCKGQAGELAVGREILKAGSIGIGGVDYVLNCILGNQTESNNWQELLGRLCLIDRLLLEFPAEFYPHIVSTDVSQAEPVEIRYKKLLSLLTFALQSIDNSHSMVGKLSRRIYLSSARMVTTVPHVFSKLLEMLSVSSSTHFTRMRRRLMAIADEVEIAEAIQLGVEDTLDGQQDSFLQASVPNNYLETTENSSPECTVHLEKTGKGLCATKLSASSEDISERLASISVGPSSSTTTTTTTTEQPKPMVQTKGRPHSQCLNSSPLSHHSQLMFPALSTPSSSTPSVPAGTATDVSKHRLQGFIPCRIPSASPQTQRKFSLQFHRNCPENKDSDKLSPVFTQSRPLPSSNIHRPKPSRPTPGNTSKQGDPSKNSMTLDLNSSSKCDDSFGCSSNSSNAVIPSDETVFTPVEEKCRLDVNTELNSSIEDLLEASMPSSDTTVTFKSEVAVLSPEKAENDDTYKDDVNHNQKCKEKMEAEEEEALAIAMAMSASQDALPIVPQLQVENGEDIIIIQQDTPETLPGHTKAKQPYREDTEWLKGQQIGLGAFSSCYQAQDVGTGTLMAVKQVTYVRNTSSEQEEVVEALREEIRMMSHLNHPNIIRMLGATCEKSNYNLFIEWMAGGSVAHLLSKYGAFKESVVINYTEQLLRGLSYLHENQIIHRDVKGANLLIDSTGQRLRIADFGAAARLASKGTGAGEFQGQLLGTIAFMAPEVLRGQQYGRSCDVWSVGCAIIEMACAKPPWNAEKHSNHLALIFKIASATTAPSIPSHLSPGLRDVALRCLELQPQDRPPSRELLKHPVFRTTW

Structure (SMILES): CNCc1ccc(-c2cc(-c3nc(-c4ccc(S(=O)(=O)C(C)C)cc4)cnc3N)on2)cc1 [Berzosertib]
- EC50 (PANC-1 cells; PANC-1, 72 h, read-out: EC50 mean [nM], PANC-1, experiment ATRi (ATR inhibitor alone), mean of replicates): 22200 nM
- EC50 (PANC-1 cells; PANC-1, PANC-1, experiment ATRi (ATR inhibitor alone), replicates R1-R3): 31800 nM
- EC50 (PANC-1 cells; PANC-1, PANC-1, experiment GEM+ATRi_dose1, replicates R1-R3): 4.75 nM
- EC50 (PANC-1 cells; PANC-1, PANC-1, experiment GEM+ATRi_dose2, replicates R1-R3): 6.05 nM
- EC50 (PANC-1 cells; PANC-1, PANC-1, experiment GEM+ATRi_dose3, replicates R1-R3): 3.25 nM
- EC50 (PANC-1 cells; PANC-1, read-out: EC50 mean [nM], PANC-1, experiment ATRi (ATR inhibitor alone), mean of replicates): 22200 nM
- EC50 (PANC-1 cells; PANC-1, read-out: EC50 mean [nM], PANC-1, experiment GEM+ATRi_dose1, mean of replicates): 4.43 nM
- EC50 (PANC-1 cells; PANC-1, read-out: EC50 mean [nM], PANC-1, experiment GEM+ATRi_dose2, mean of replicates): 5.92 nM
- EC50 (PANC-1 cells; PANC-1, read-out: EC50 mean [nM], PANC-1, experiment GEM+ATRi_dose3, mean of replicates): 4.05 nM
- EC50 (PANC-1 cells; PANC-1, read-out: pEC50, PANC-1 (converted), experiment ATRi (ATR inhibitor alone), -log10 of EC50 [M]): 31600 nM
- EC50 (PANC-1 cells; PANC-1, read-out: pEC50, PANC-1 (converted), experiment GEM+ATRi_dose1, replicates R1-R3, -log10 of EC50 [M]): 4.79 nM
- EC50 (PANC-1 cells; PANC-1, read-out: pEC50, PANC-1 (converted), experiment GEM+ATRi_dose2, replicates R1-R3, -log10 of EC50 [M]): 6.03 nM
- EC50 (PANC-1 cells; PANC-1, read-out: pEC50, PANC-1 (converted), experiment GEM+ATRi_dose3, replicates R1-R3, -log10 of EC50 [M]): 3.24 nM
- Curve bottom (PANC-1 cells; [1]): 1.01 and 0.99
- Curve top (PANC-1 cells; experiment GEM+ATRi_dose1): 0.60 and 0.57
- Curve top (PANC-1 cells; experiment GEM+ATRi_dose2): 0.57 and 0.55
- Curve bottom (PANC-1 cells; experiment GEM+ATRi_dose3): 0.93 and 0.91
- Curve top (PANC-1 cells; experiment GEM+ATRi_dose3): 0.55 and 0.54
- Kd (MAP3K1 ; Q13233): 11.6 nM
- Kd (GSK3A ; P49840): 39.7 nM
- EC50 (Suit2-07 cells; experiment ATRi (ATR inhibitor alone), -log10 of EC50 [M], read-out: pEC50 (converted)): 8.32e-07 M
- EC50 (Suit2-07 cells; experiment ATRi (ATR inhibitor alone), mean (one replicate), read-out: EC50 mean): 8.26e-07 M
- EC50 (Suit2-07 cells; experiment ATRi (ATR inhibitor alone), replicate R1, read-out: EC50): 8.26e-07 M
- Response (Suit2-07 cells; GEM+ATRi_dose1, GEM 0 nM + ATRi 10 nM, in % (unit assumed)): 98.77
- Response (Suit2-07 cells; GEM+ATRi_dose1, GEM 1 nM + ATRi 10 nM, in % (unit assumed)): 98.71
- Response (Suit2-07 cells; GEM+ATRi_dose1, GEM 3 nM + ATRi 10 nM, in % (unit assumed)): 96.04
- Response (Suit2-07 cells; GEM+ATRi_dose1, GEM 10 nM + ATRi 10 nM, in % (unit assumed)): 36.30
- Response (Suit2-07 cells; GEM+ATRi_dose1, GEM 30 nM + ATRi 10 nM, in % (unit assumed)): 15.43
- Response (Suit2-07 cells; GEM+ATRi_dose1, GEM 100 nM + ATRi 10 nM, in % (unit assumed)): 14.13
- Response (Suit2-07 cells; GEM+ATRi_dose1, GEM 300 nM + ATRi 10 nM, in % (unit assumed)): 12.00
- Response (Suit2-07 cells; GEM+ATRi_dose1, GEM 1000 nM + ATRi 10 nM, in % (unit assumed)): 12.45
- Response (Suit2-07 cells; GEM+ATRi_dose1, GEM 3000 nM + ATRi 10 nM, in % (unit assumed)): 11.51
- Response (Suit2-07 cells; GEM+ATRi_dose2, GEM 0 nM + ATRi 3 nM, in % (unit assumed)): 99.37
- Response (Suit2-07 cells; GEM+ATRi_dose2, GEM 1 nM + ATRi 3 nM, in % (unit assumed)): 98.07
- Response (Suit2-07 cells; GEM+ATRi_dose2, GEM 3 nM + ATRi 3 nM, in % (unit assumed)): 44.64
- Response (Suit2-07 cells; GEM+ATRi_dose2, GEM 10 nM + ATRi 3 nM, in % (unit assumed)): 20.67
- Response (Suit2-07 cells; GEM+ATRi_dose2, GEM 30 nM + ATRi 3 nM, in % (unit assumed)): 15.78
- Response (Suit2-07 cells; GEM+ATRi_dose2, GEM 100 nM + ATRi 3 nM, in % (unit assumed)): 12.95
- Response (Suit2-07 cells; GEM+ATRi_dose2, GEM 300 nM + ATRi 3 nM, in % (unit assumed)): 13.27
- Response (Suit2-07 cells; GEM+ATRi_dose2, GEM 1000 nM + ATRi 3 nM, in % (unit assumed)): 13.27
- Response (Suit2-07 cells; GEM+ATRi_dose2, GEM 3000 nM + ATRi 3 nM, in % (unit assumed)): 11.05
- Response (Suit2-07 cells; GEM+ATRi_dose3, GEM 0 nM + ATRi 30 nM, in % (unit assumed)): 92.60
- Response (Suit2-07 cells; GEM+ATRi_dose3, GEM 1 nM + ATRi 30 nM, in % (unit assumed)): 79.33
- Response (Suit2-07 cells; GEM+ATRi_dose3, GEM 3 nM + ATRi 30 nM, in % (unit assumed)): 33.65
- Response (Suit2-07 cells; GEM+ATRi_dose3, GEM 10 nM + ATRi 30 nM, in % (unit assumed)): 15.80
- Response (Suit2-07 cells; GEM+ATRi_dose3, GEM 30 nM + ATRi 30 nM): 15.08
- Response (Suit2-07 cells; GEM+ATRi_dose3, GEM 100 nM + ATRi 30 nM, in % (unit assumed)): 13.63
- Response (Suit2-07 cells; GEM+ATRi_dose3, GEM 300 nM + ATRi 30 nM, in % (unit assumed)): 12.25
- Response (Suit2-07 cells; GEM+ATRi_dose3, GEM 1000 nM + ATRi 30 nM, in % (unit assumed)): 9.74
- Response (Suit2-07 cells; GEM+ATRi_dose3, GEM 3000 nM + ATRi 30 nM, in % (unit assumed)): 10.10
- Curve bottom (Suit2-07 cells; [1]): 1.01
- Curve top (Suit2-07 cells; [1]): 0.09
- Response (Suit2-07 cells; experiment ATRi, ATRi 3 nM, GEM 0 nM, in % (unit assumed)): 98.72
- Response (Suit2-07 cells; experiment ATRi, ATRi 10 nM, GEM 0 nM, in % (unit assumed)): 98.54
- Response (Suit2-07 cells; experiment ATRi, ATRi 30 nM, GEM 0 nM, in % (unit assumed)): 98.42
- Response (Suit2-07 cells; experiment ATRi, ATRi 100 nM, GEM 0 nM, in % (unit assumed)): 98.94
- Response (Suit2-07 cells; experiment ATRi, ATRi 300 nM, GEM 0 nM, in % (unit assumed)): 89.08
- Response (Suit2-07 cells; experiment ATRi, ATRi 1000 nM, GEM 0 nM, in % (unit assumed)): 45.00
- Response (Suit2-07 cells; experiment ATRi, ATRi 3000 nM, GEM 0 nM, in % (unit assumed)): 16.95
- Response (Suit2-07 cells; experiment ATRi, ATRi 10000 nM, GEM 0 nM, in % (unit assumed)): 8.62
- Curve bottom (Suit2-07 cells; experiment GEM+ATRi_dose1): 1.01
- Curve top (Suit2-07 cells; experiment GEM+ATRi_dose1): 0.13
- Curve bottom (Suit2-07 cells; experiment GEM+ATRi_dose2): 1.03
- Curve top (Suit2-07 cells; experiment GEM+ATRi_dose2): 0.15
- Curve bottom (Suit2-07 cells; experiment GEM+ATRi_dose3): 0.95
- Curve top (Suit2-07 cells; experiment GEM+ATRi_dose3): 0.13

Structure (SMILES): COc1cc(N2CCC(N3CCN(C)CC3)CC2)ccc1Nc1ncc(Cl)c(Nc2ccccc2P(C)(C)=O)n1 [Brigatinib]
- EC50 (MiaPaCa-2): 177 nM
- EC50 (AAK1; [2]): 328 nM
- pKDapp (AAK1; [2]): 6.66
- Kd (AAK1; AAK1, 5 cell line mix lysate, Kinobeads ε, ref Reinecke et al. (2023), read-out: KDapp): 220 nM
- EC50 (MAP4K1; [3]): 716 nM
- pKDapp (MAP4K1; [3]): 6.28
- Kd (MAP4K1; MAP4K1, 5 cell line mix lysate, Kinobeads ε, ref Reinecke et al. (2023), read-out: KDapp): 520 nM

Structure (SMILES): C[C@]12O[C@H](C[C@]1(O)CO)n1c3ccccc3c3c4c(c5c6ccccc6n2c5c31)CNC4=O [Lestaurtinib]
- EC50 (MiaPaCa-2): 275 nM
- EC50 (MAP4K1; MAP4K1, 4 cell line mix lysate, Kinobeads y, ref Klaeger et al. (2017)): 347 nM
